# Results reported in patent publication US6525001B1, “Substituted pyrimidine and pyridine herbicides” (Mid-American Commercialization Corporation, priority 1997, dated 2003).
# Columns and labels:
# Type in all cases: in vivo
# [1] = tested on: black nightshade (Solanum nigra); experiment: Test D; parameters: key: 0 is no effect; 100 is complete control; conditions: POSTEMERGENCE
# Procedure: (§1) Compounds evaluated in this test were formulated in a non-phytotoxic solvent mixture which included a surfactant and applied to plants that were in the 1- to 4-leaf stage (postemergence application). A mixture of sandy loam soil and greenhouse potting mix in a 60:40 ratio was used for the postemergence test.
# (§2) Plantings of these crops and weed species were adjusted to produce plants of appropriate size for the postemergence test. All plant species were grown using normal greenhouse practices. Crop and weed species include alfalfa (Medicago sativa), annual bluegrass (Poa annua), blackgrass (Alopecurus myosuroides), black nightshade (Solanum nigra), chickweed (Stellaria media), common poppy (Papaver rhoeas), deadnettle (Lamium amplexicaule), downy brome (Bromus tectorum), field violet (Viola arvensis), galium 2 (Galium aparine), green foxtail (Setaria viridis), Italian ryegrass (Lolium multiflorum), jointed goatgrass (Aegilops cylindrica), kochia (Kochia scoparia), lambsquarters (Chenopodium album), lentil (Lens culinaris), littleseed canarygrass (Phalaris minor), pea (Pisum sativum), potato (Solanum tuberosum), rape (Brassica napus), redroot pigweed (Amaranthus retroflexus), Russian thistle (Salsola kali), scentless chamomile (Matricaria inodora), sorghum (Sorghum vulgare), spring barley (Hordeum vulgare), sugar beet (Beta vulgaris), sunflower (Helianthus annuus), ivyleaf speedwell (Veronica hederaefolia), spring wheat (Triticum aestivum), winter wheat (Triticum aestivum), wild buckwheat (Polygonum convolvulus), wild mustard (Sinapis arvensis), wild oat (Avena fatua), windgrass (Apera spica-venti) and winter barley (Hordeum vulgare).
# (§3) Treated plants and untreated controls were maintained in a greenhouse for approximately 21 to 28 days, after which all treated plants were compared to untreated controls and visually evaluated. Plant response ratings, summarized in Table D, are based upon a 0 to 100 scale where 0 is no effect and 100 is complete control. A dash response (−) means no test result.
# [2] = tested on: chickweed (Stellaria media); experiment: Test D; parameters: key: 0 is no effect; 100 is complete control; conditions: POSTEMERGENCE
# Procedure: as §1, §2, §3
# [3] = tested on: common poppy (Papaver rhoeas); experiment: Test D; parameters: key: 0 is no effect; 100 is complete control; conditions: POSTEMERGENCE
# Procedure: as §1, §2, §3
# [4] = tested on: deadnettle (Lamium amplexicaule); experiment: Test D; parameters: key: 0 is no effect; 100 is complete control; conditions: POSTEMERGENCE
# Procedure: as §1, §2, §3
# [5] = tested on: rape (Brassica napus); experiment: Test D; parameters: key: 0 is no effect; 100 is complete control; conditions: POSTEMERGENCE
# Procedure: as §1, §2, §3
# [6] = tested on: sugar beet (Beta vulgaris); experiment: Test D; parameters: key: 0 is no effect; 100 is complete control; conditions: POSTEMERGENCE
# Procedure: as §1, §2, §3
# [7] = tested on: wild mustard (Sinapis arvensis); experiment: Test D; parameters: key: 0 is no effect; 100 is complete control; conditions: POSTEMERGENCE
# Procedure: as §1, §2, §3
# [8] = tested on: blackgrass (Alopecurus myosuroides); experiment: Test D; conditions: PREEMERGENCE
# [9] = tested on: downy brome (Bromus tectorum); experiment: Test D; conditions: PREEMERGENCE, Rate 250 g/ha
# [10] = tested on: galium 2 (Galium aparine); experiment: Test D; parameters: key: 0 is no effect; 100 is complete control; conditions: PREEMERGENCE
# [11] = tested on: redroot pigweed (Amaranthus retroflexus); experiment: Test D; parameters: key: 0 is no effect; 100 is complete control; conditions: PREEMERGENCE
# [12] = tested on: sugar beet (Beta vulgaris); experiment: Test D; parameters: key: 0 is no effect; 100 is complete control; conditions: PREEMERGENCE
# [13] = tested on: winter wheat (Triticum aestivum); experiment: Test D; parameters: key: 0 is no effect; conditions: PREEMERGENCE
# [14] = tested on: alexandergrass (Brachiaria plantaginea); experiment: Test E pre-/postemergence/post directed; parameters: key: 0 is no injury; 100 is complete control; conditions: PREEMERGENCE
# Method in brief: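 Greenhouse pots; compound in non-phytotoxic solvent with surfactant, sprayed preemergence within one day of planting, postemergence at two to four leaf stage (three to twenty cm), or post directed to plant base and soil. Visual injury rated 13 to 21 days after application, 0 (none) to 100 (complete control).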
smiles,measurement,setting,value
CCc1cnc(-c2ccc(C(F)(F)F)cc2)nc1Cc1cccc(C(F)(F)F)c1 [Compound 22],"Plant response rating, Blk nightshade",[1]; Rate 62 g/ha,90
same,"Plant response rating, Blk nightshade",[1]; Rate 125 g/ha,100
same,"Plant response rating, Chickweed",[2]; Rate 62 g/ha,60
same,"Plant response rating, Chickweed",[2]; Rate 125 g/ha,100
same,"Plant response rating, Common poppy",[3]; Rate 62 g/ha,100
same,"Plant response rating, Common poppy",[3]; Rate 125 g/ha,100
same,"Plant response rating, Deadnettle",[4]; Rate 62 g/ha,50
same,"Plant response rating, Deadnettle",[4]; Rate 125 g/ha,90
same,"Plant response rating, Rape",[5]; Rate 62 g/ha,90
same,"Plant response rating, Rape",[5]; Rate 125 g/ha,90
same,"Plant response rating, Sugar beet",[6]; Rate 62 g/ha,100
same,"Plant response rating, Sugar beet",[6]; Rate 125 g/ha,100
same,"Plant response rating, Wild mustard",[7]; Rate 62 g/ha,100
same,"Plant response rating, Wild mustard",[7]; Rate 125 g/ha,100
same,"Plant response rating, Blackgrass",[8]; Rate 62 g/ha,30
same,"Plant response rating, Blackgrass",[8]; Rate 125 g/ha,60
same,"Plant response rating, Blackgrass",[8]; Rate 250 g/ha,40
same,"Plant response rating, Downy brome",[9],10
same,"Plant response rating, Galium",[10]; Rate 62 g/ha,20
same,"Plant response rating, Galium",[10]; Rate 125 g/ha,100
same,"Plant response rating, Galium",[10]; Rate 250 g/ha,30
same,"Plant response rating, Redroot pigweed",[11]; Rate 62 g/ha,60
same,"Plant response rating, Redroot pigweed",[11]; Rate 125 g/ha,100
same,"Plant response rating, Redroot pigweed",[11]; Rate 250 g/ha,70
same,"Plant response rating, Sugar beet",[12]; Rate 62 g/ha,30
same,"Plant response rating, Sugar beet",[12]; Rate 125 g/ha,100
same,"Plant response rating, Sugar beet",[12]; Rate 250 g/ha,80
same,"Plant response rating, Wheat (winter)",[13]; Rate 62 g/ha,0
same,"Plant response rating, Wheat (winter)",[13]; Rate 125 g/ha,10
same,"Plant response rating, Wheat (winter)",[13]; Rate 250 g/ha,5
COc1cnc(-c2ccc(C(F)(F)F)cc2)nc1Cc1cccc(C(F)(F)F)c1 [Compound 23],"Plant response rating, Alexandergrass",[14]; Rate 32 g/ha,0
same,"Plant response rating, Alexandergrass",[14]; Rate 64 g/ha,0
Cc1cnc(-n2cnc(C(F)(F)F)c2)nc1Cc1cccc(C(F)(F)F)c1 [Compound 44],"Plant response rating, Alexandergrass",[14]; Rate 32 g/ha,0
